Assay results reported in patent US10633348B2, “Methods to treat lymphoplasmacytic lymphoma” (Dana-Farber Cancer Institute, Inc., priority 2013, dated 2020).

What was measured:
TMD8 = experiment: CellTiter-Glo cell viability assay; assay type: cell-based; conditions: Homo sapiens, 72 hours
Experimental: (§1) CellTiter-Glo® Luminescent cell viability assay (Promega) was used to assess cell survival following treatment with the compounds described. Cells were seeded into 384 well plates with the EL406 Combination Washer Dispenser (BioTek Instruments, Inc.) and the compounds were injected into the cells culture media with the JANUS Automated Workstation (PerkinElmer Inc.). Cells were treated with a series diluted inhibitors (20˜0.04 μM) for 72 hours at 37° C. Luminescent measurement is performed using the 2104 Envision® Multilabel Reader (PerkinElmer Inc.).

OCI-Ly19 = experiment: CellTiter-Glo cell viability assay; assay type: cell-based; conditions: Homo sapiens
Experimental: as §1

MWCL-1 = experiment: CellTiter-Glo cell viability assay; assay type: cell-based
Experimental: as §1

Ramos = experiment: CellTiter-Glo cell viability assay; assay type: cell-based; conditions: Homo sapiens
Experimental: as §1

OCI-Ly7 = experiment: CellTiter-Glo cell viability assay; assay type: cell-based; conditions: Homo sapiens, 72 hours
Experimental: as §1

BCWM.1 = experiment: CellTiter-Glo cell viability assay; assay type: cell-based
Experimental: as §1

OCI-Ly3 = experiment: CellTiter-Glo cell viability assay; assay type: cell-based
Experimental: as §1

HCK = assay type: biochemical; conditions: read-out: HCK IC50 (nM) Inv
From the text: The in vitro activity of the compounds described herein in inhibiting TAK1, HCK and other kinases were obtained using an Invitrogen Select Screening assay as known in the art. The IC50 values determined from this assay are shown below.

Row | SMILES | EC50 (TMD8) [nM] | EC50 (OCI-Ly19; OCI-LY19, 72 h) [nM] | EC50 (MWCL-1; 72 h) [nM] | EC50 (Ramos; 72 h) [nM] | EC50 (OCI-Ly7) [nM] | EC50 (BCWM.1; BCWM1, 72 h) [nM] | EC50 (OCI-Ly3; Homo sapiens, OCI-Ly3, 72 h) [nM] | EC50 (OCI-Ly19; OCI-LY19, 72 hours) [nM] | EC50 (Ramos; 72 hours) [nM] | IC50 (HCK) [nM] | EC50 (MWCL-1; 72 hours) [nM] | EC50 (OCI-Ly3; 72 hours) [nM] | EC50 (BCWM.1; 72 hours) [nM]
1 | CCN1CCN(Cc2ccc(NC(=O)c3ccc(C)c(Oc4ccnc(Nc5cnoc5)n4)c3)cc2C(F)(F)F)CC1 [(A-15), N-(4-((4-ethylpiperazin-1-yl)methyl)-3-(trifluoromethyl)phenyl)-3-((2-(isoxazol-4-ylamino)pyrimidin-4-yl)oxy)-4-methylbenzamide] | 392 | 307 | 718 | 4680 | 786 | 185 | – | – | – | – | – | – | –
2 | CCN1CCN(Cc2ccc(NC(=O)c3ccc(C)c(Oc4cc(Nc5cn[nH]c5)ncn4)c3)cc2C(F)(F)F)CC1 [(A-7), 3-((6-((1H-pyrazol-4-yl)amino)pyrimidin-4-yl)oxy)-N-(4-((4-ethylpiperazin-1-yl)methyl)-3-(trifluoromethyl)phenyl)-4-methylbenzamide] | – | 192 | 71 | 3020 | – | 48 | 4000 | – | – | – | – | – | –
3 | CCN1CCN(Cc2ccc(NC(=O)c3ccc(C)c(Oc4cc(Nc5cnoc5)ncn4)c3)cc2C(F)(F)F)CC1 [(A-16), N-(4-((4-ethylpiperazin-1-yl)methyl)-3-(trifluoromethyl)phenyl)-3-((6-(isoxazol-4-ylamino)pyrimidin-4-yl)oxy)-4-methylbenzamide] | 856 | – | 1710 | – | 1030 | 610 | – | 777 | 1310 | – | – | – | –
4 | CCN1CCN(Cc2ccc(NC(=O)c3ccc(C)c(Oc4cc(NNC(C)=O)ncn4)c3)cc2C(F)(F)F)CC1 [(A-9), 3-((6-(2-acetylhydrazinyl)pyrimidin-4-yl)oxy)-N-(4-((4-ethylpiperazin-1-yl)methyl)-3-(trifluoromethyl)phenyl)-4-methylbenzamide] | – | – | 18700 | – | – | 10800 | 19600 | > 20000 | > 20000 | > 10000 | > 20000 | > 20000 | 6460
5 | Cc1ccc(C(=O)Nc2cccc(C(C)(C)C#N)c2)cc1Oc1ncnc2[nH]ccc12 [(I-11), 3-((7H-pyrrolo[2,3-d]pyrimidin-4-yl)oxy)-N-(3-(2-cyanopropan-2-yl)phenyl)-4-methylbenzamide] | 3460 | – | 1440 | – | 1120 | 4950 | 9690 | – | 3890 | – | – | – | –
6 | CCN1CCN(Cc2ccc(NC(=O)c3ccc(C)c(Oc4cc(NC(=O)C5CC5)ncn4)c3)cc2C(F)(F)F)CC1 [(A-3), 3-((6-(cyclopropanecarboxamido)pyrimidin-4-yl)oxy)-N-(4-((4-ethylpiperazin-1-yl)methyl)-3-(trifluoromethyl)phenyl)-4-methylbenzamide] | – | 600 | 910 | 2680 | – | 50 | 480 | – | – | – | – | – | –
7 | CCN1CCN(Cc2ccc(NC(=O)c3ccc(C)c(Oc4cc(Nc5ccn(C)n5)ncn4)c3)cc2C(F)(F)F)CC1 [(A-12), N-(4-((4-ethylpiperazin-1-yl)methyl)-3-(trifluoromethyl)phenyl)-4-methyl-3-((6-((1-methyl-1H-pyrazol-3-yl)amino)pyrimidin-4-yl)oxy)benzamide] | – | 209 | 75 | 2960 | – | 38 | – | – | – | – | 71 | – | 71
8 | CCC(=O)Nc1cc(Oc2cc(C(=O)Nc3ccc(CN4CCN(CC)CC4)c(C(F)(F)F)c3)ccc2C)ncn1 [(A-2), N-(4-((4-ethylpiperazin-1-yl)methyl)-3-(trifluoromethyl)phenyl)-4-methyl-3-((6-propionamidopyrimidin-4-yl)oxy)benzamide] | – | 1750 | 1350 | 5340 | – | 42 | 2960 | – | – | – | – | – | –
9 | CCN1CCN(Cc2ccc(NC(=O)c3ccc(C)c(Oc4cc(NC5COC5)ncn4)c3)cc2C(F)(F)F)CC1 [(A-13), N-(4-((4-ethylpiperazin-1-yl)methyl)-3-(trifluoromethyl)phenyl)-4-methyl-3-((6-(oxetan-3-ylamino)pyrimidin-4-yl)oxy)benzamide] | – | 2280 | 1760 | 3260 | – | – | 1200 | – | – | – | 2860 | 1730 | –
10 | CCN1CCN(Cc2ccc(NC(=O)c3ccc(C)c(Oc4cc(NC5CNC5)ncn4)c3)cc2C(F)(F)F)CC1 [(A-10), 3-((6-(azetidin-3-ylamino)pyrimidin-4-yl)oxy)-N-(4-((4-ethylpiperazin-1-yl)methyl)-3-(trifluoromethyl)phenyl)-4-methylbenzamide] | – | – | 24800 | – | – | – | – | > 20000 | > 20000 | > 10000 | > 20000 | – | –
11 | CCN1CCN(Cc2ccc(NC(=O)c3ccc(C)c(Oc4cc(Nc5ccn[nH]5)ncn4)c3)cc2C(F)(F)F)CC1 [(A-6), 3-((6-((1H-pyrazol-5-yl)amino)pyrimidin-4-yl)oxy)-N-(4-((4-ethylpiperazin-1-yl)methyl)-3-(trifluoromethyl)phenyl)-4-methylbenzamide] | – | 302 | 118 | 3080 | – | 86 | 4770 | – | – | – | – | – | –
12 | CCN1CCN(Cc2ccc(NC(=O)c3ccc(C)c(Oc4cc(NC)ncn4)c3)cc2C(F)(F)F)CC1 [(A-1), N-(4-((4-ethylpiperazin-1-yl)methyl)-3-(trifluoromethyl)phenyl)-4-methyl-3-((6-(methylamino)pyrimidin-4-yl)oxy)benzamide] | – | – | 3990 | – | – | 1720 | 11500 | 4980 | 9480 | 275 | – | – | –
13 | CCN1CCN(Cc2ccc(NC(=O)c3ccc(C)c(Oc4cc(NN(C)C)ncn4)c3)cc2C(F)(F)F)CC1 [(A-11), 3-((6-(2,2-dimethylhydrazinyl)pyrimidin-4-yl)oxy)-N-(4-((4-ethylpiperazin-1-yl)methyl)-3-(trifluoromethyl)phenyl)-4-methylhenzamide] | – | – | > 20000 | – | – | 19700 | > 20000 | > 20000 | > 20000 | > 10000 | – | – | –
14 | C=CC(=O)NNc1cc(Oc2cc(C(=O)Nc3ccc(CN4CCN(CC)CC4)c(C(F)(F)F)c3)ccc2C)ncn1 [(A-18)] | – | 2780 | 4090 | 7240 | – | 1980 | – | – | – | – | 6740 | – | 3750
